Experimental data published in patent publication US11135181B2, “Treatment for depression and depressive disorders” (Medlab IP Pty Ltd, priority 2014, dated 2021).

How the values were obtained:
Assay type in all cases: in vivo, human
[1] = test system: subjects diagnosed with depression; assay: Warwick-Edinburgh Mental Well-Being Scale (WBS) in subjects with treatment-resistant depression
From the text: WBS has 14 items and assesses feelings and thoughts associated with mood (α=0.91) with higher scores indicate better mood. It has a different factor structure to the BDI and DASS and was used in this study as a measure of mood improvement.
(§1) The study received ethical approval from the Medical Research Ethics Committee (MREC) University of Queensland, Australia, within the guidelines of the National Statement on Ethical Conduct in Human Research. All participants provided written informed consent for the study.
The subjects were selected for inclusion in the study as follows. At the completion of a 15 week study investigating SAMe treatment of depression, suboptimal treatment responders (n=8) were inducted into the present orotate study after a 2 week wash out period. Sub-optimal treatment responders were defined as those still experiencing clinical depression by the SAMe study endpoint, which consisted of six participants with major depression and two with moderate depression. […]
(§2) Depression was monitored in the treated subjects over the eight week course using a variety of well known methodologies: the Beck Depression Inventory (BDI); the Depression and Anxiety Stress Scale (DASS); Outcome Questionnaire-45 (OQ45); the Warwick-Edinburgh Mental Well-Being Scale (WBS); and a Quality of Life (QoL score).

[2] = test system: subjects diagnosed with depression; assay: Clinical depression status at study endpoint; details: 8 weeks, 1600 mg per day
From the text: as §1
(§3) The subjects were selected for inclusion in the study as follows. At the completion of a 15 week study investigating SAMe treatment of depression, suboptimal treatment responders (n=8) were inducted into the present orotate study after a 2 week wash out period. Sub-optimal treatment responders were defined as those still experiencing clinical depression by the SAMe study endpoint, which consisted of six participants with major depression and two with moderate depression. The subjects comprised six females between 33 to 70 years of age (mean age of 53 years) and two males between 48-54 years of age (mean age of 51 years). The orotate study was conducted as a single group study for 8 weeks (mean time for SAMe responders) with a focus was on efficacy.
(§4) Inclusion criteria also required a primary diagnosis of major depression that has a verifiable history of being treatment resistant, current medication type being SSRIs (for standardisation purposes), and at least 18 years of age with no upper age limit. Participants were also asked not to take any nutritional supplements such as B group vitamins or other supplements that have antidepressant effects (a list was provided to participants).
The magnesium orotate was administered in capsule form, each capsule comprising 400 mg magnesium orotate. The daily dose of 1600 mg magnesium orotate was provided as two capsules taken in the morning and two capsules taken at night.

[3] = test system: subjects diagnosed with depression; assay: Outcome Questionnaire-45 (OQ45) in subjects with treatment-resistant depression; details: n=8
From the text: OQ45 is a self-report symptom and distress inventory designed as an independent measure of symptom distress and functioning to assess the response to intervention at regular intervals such as on a weekly bases (α=0.93, & κ>0.83). The OQ45 consists of 45 items with a five point scale. A high total score […] indicates a high level of symptom distress (anxiety, depression, and somatic, work and social role problems). Lower scores indicate less severity of problems. Average community non-clinical scores cut off (CO) occur at about >63, and changes of 14 points in either direction are typically considered clinically significant change and are reliable. […]
as §2
(§5) Three subjects were administered a probiotic supplement containing magnesium orotate for eight weeks, and measures of depression (BDI and OQ45) assessed. […]
(§6) BDI and OQ45 were assessed for each subject as described in Example 1, at the beginning of the study prior to the initiation of treatment and again at the completion of eight weeks of combined magnesium orotate plus probiotic administration. […]

[4] = test system: subjects diagnosed with depression; assay: Depression and Anxiety Stress Scale (DASS) in subjects with treatment-resistant depression
From the text: The DASS short form is a 21 item self-report scale designed to measure depression and anxiety and was used here as a secondary self-report assessment. The DASS has high internal consistency and yields meaningful discriminations in a variety of settings (α=0.88-0.96).
as §1, §3
as §4, with “participants). […]” for “participants).”
as §2

[5] = test system: subjects diagnosed with depression; assay: Quality of Life (QoL) score in subjects with treatment-resistant depression
From the text: QoL has 16 items and evaluates perceived satisfaction with life over a number of domains (α=0.85). QoL typically provides an important evaluation of perception of life circumstances and stressors.
as §1, §3, §4
The magnesium orotate was administered in capsule form, each capsule comprising 400 mg magnesium orotate. […]
as §2

[6] = test system: subjects diagnosed with depression; assay: Beck Depression Inventory (BDI) in subjects with treatment-resistant depression
From the text: BDI is a 21-item self-report inventory that is widely used to assess depression. It has high internal constancy and correlates highly with other self-report measures of depression (α=0.60−0.90).
as §1
as §3, with “efficacy. […]” for “efficacy.”
as §2, §5, §6

[7] = after 8 weeks of 1600 mg per day oral capsules, n=8

## magnesium orotate
[1]; baseline before treatment, n=8, higher score = better mood
  WBS mean score, Pre-Treatment: 34.6
[1]; baseline minus week 8, 1600 mg per day, Sig. (2-tailed) .025
  WBS paired difference, mean (MWBS-WMBS8): −11
[2]
  share of the group in clinical remission by the endpoint: 50%
  share of the group mildly depressed: 10%
  share of the group that remained moderately depressed: 30%
  share of the group without any clinical change: 10%
[3]; after 8 weeks of 1600 mg per day oral capsules
  OQ45 mean score, Post-Treatment: 54.2
[3]; baseline before treatment
  OQ45 mean score, Pre-Treatment: 86.6
[4]; [7]
  DASS mean score, Post-Treatment: 25.2
[4]; baseline before treatment, n=8
  DASS mean score, Pre-Treatment: 44.7
[4]; baseline minus week 8, 1600 mg per day, Sig. (2-tailed) .032
  DASS paired difference, mean (DASS-DASS8): 19.5
[5]; [7]
  QoL mean score, Post-Treatment: 76.0
[5]; baseline before treatment, n=8
  QoL mean score, Pre-Treatment: 55.2
[5]; baseline minus week 8, 1600 mg per day, Sig. (2-tailed) .027
  QoL paired difference, mean (QoL-QoL8): −20.75
[6]; 8 weeks, 1600 mg per day, p=0.021
  BDI change score (mean, pre- versus post treatment): 19
[6]; [7]
  BDI mean score, Post-Treatment: 14.1
[6]; baseline before treatment, n=8 SAMe suboptimal responders on SSRIs
  BDI mean score, Pre-Treatment: 33.8
